Source: PubChem BioAssay (NCI)
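Interpolation was linear, between the two tested concentrations surrounding the appropriate level; five concentrations were tested over 48 hours in 96-well plates. The concentration for 50% growth inhibition is given as GI50. TGI marks complete inhibition of growth.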

What was measured:
Assay in all cases: NCI-60 cell line screen, 48 h
[1] = tested on: 786-0 renal
[2] = tested on: A498 renal
[3] = tested on: A549 NSCLC
[4] = tested on: ACHN renal
[5] = tested on: BT-549 breast
[6] = tested on: CAKI-1 renal
[7] = tested on: CCRF-CEM leukemia
[8] = tested on: COLO 205 colon
[9] = tested on: DU-145 prostate
[10] = tested on: EKVX NSCLC
[11] = tested on: HCC-2998 colon
[12] = tested on: HCT-116 colon
[13] = tested on: HCT-15 colon
[14] = tested on: HL-60(TB) leukemia
[15] = tested on: HOP-62 NSCLC
[16] = tested on: HOP-92 NSCLC
[17] = tested on: HS 578T breast
[18] = tested on: HT29 colon
[19] = tested on: IGROV1 ovarian
[20] = tested on: KM12 colon
[21] = tested on: LOX IMVI melanoma
[22] = tested on: MALME-3M melanoma
[23] = tested on: MCF7 breast
[24] = tested on: MDA-MB-231 breast
[25] = tested on: MDA-MB-435
[26] = tested on: MOLT-4 leukemia
[27] = tested on: NCI-H226 lung
[28] = tested on: NCI-H23 lung

Cc1ncsc1-c1ccc(CNC(=O)[C@@H]2C[C@@H](O)CN2C(=O)[C@@H](NC(=O)C2(C#N)CC2)C(C)(C)C)cc1
GI50 [1]: > 100 µM | TGI [1]: > 100 µM | GI50 [2]: 24 µM | TGI [2]: > 100 µM | GI50 [3]: > 100 µM | TGI [3]: > 100 µM | GI50 [4]: > 100 µM | TGI [4]: > 100 µM | GI50 [5]: > 100 µM | TGI [5]: > 100 µM | GI50 [6]: 82 µM | TGI [6]: > 100 µM | GI50 [7]: > 100 µM | TGI [7]: > 100 µM | GI50 [8]: > 100 µM | TGI [8]: > 100 µM | GI50 [9]: > 100 µM | TGI [9]: > 100 µM | GI50 [10]: 35.2 µM | TGI [10]: > 100 µM | GI50 [11]: > 100 µM | TGI [11]: > 100 µM | GI50 [12]: > 100 µM | TGI [12]: > 100 µM | GI50 [13]: > 100 µM | TGI [13]: > 100 µM | GI50 [14]: > 100 µM | TGI [14]: > 100 µM | GI50 [15]: > 100 µM | TGI [15]: > 100 µM | GI50 [16]: 70.4 µM | TGI [16]: > 100 µM | GI50 [17]: 50.5 µM | TGI [17]: > 100 µM | GI50 [18]: > 100 µM | TGI [18]: > 100 µM | GI50 [19]: > 100 µM | TGI [19]: > 100 µM | GI50 [20]: > 100 µM | TGI [20]: > 100 µM | GI50 [21]: > 100 µM | TGI [21]: > 100 µM | GI50 [22]: > 100 µM | TGI [22]: > 100 µM | GI50 [23]: > 100 µM | TGI [23]: > 100 µM | GI50 [24]: > 100 µM | TGI [24]: > 100 µM | GI50 [25]: > 100 µM | TGI [25]: > 100 µM | GI50 [26]: > 100 µM | TGI [26]: > 100 µM | GI50 [27]: > 100 µM | TGI [27]: > 100 µM | GI50 [28]: > 100 µM | TGI [28]: > 100 µM
